# Test results taken from patent US6864286B2, “Inhibitors of the EGF-receptor tyrosine kinase and methods for their use” (Parker Hughes Institute, priority 1998, dated 2005).
# Entries after “also recorded” stand apart in the source; their conditions may differ. Like-named read-outs stand apart in the source and are kept apart here.
# Assays:
# [1] = molecular target: T1, BTK (Homo sapiens, UniProt Q06187); experiment: Cell-free BTK immune complex kinase assay; format: biochemical; settings: for effect on enzymatic activity of BTK: at concentrations as high as 350 μM
# T1 construct: made in house; host or cells: Sf21 insect cells (baculovirus)
# T1 sequence (Q06187 whole entry, species assumed): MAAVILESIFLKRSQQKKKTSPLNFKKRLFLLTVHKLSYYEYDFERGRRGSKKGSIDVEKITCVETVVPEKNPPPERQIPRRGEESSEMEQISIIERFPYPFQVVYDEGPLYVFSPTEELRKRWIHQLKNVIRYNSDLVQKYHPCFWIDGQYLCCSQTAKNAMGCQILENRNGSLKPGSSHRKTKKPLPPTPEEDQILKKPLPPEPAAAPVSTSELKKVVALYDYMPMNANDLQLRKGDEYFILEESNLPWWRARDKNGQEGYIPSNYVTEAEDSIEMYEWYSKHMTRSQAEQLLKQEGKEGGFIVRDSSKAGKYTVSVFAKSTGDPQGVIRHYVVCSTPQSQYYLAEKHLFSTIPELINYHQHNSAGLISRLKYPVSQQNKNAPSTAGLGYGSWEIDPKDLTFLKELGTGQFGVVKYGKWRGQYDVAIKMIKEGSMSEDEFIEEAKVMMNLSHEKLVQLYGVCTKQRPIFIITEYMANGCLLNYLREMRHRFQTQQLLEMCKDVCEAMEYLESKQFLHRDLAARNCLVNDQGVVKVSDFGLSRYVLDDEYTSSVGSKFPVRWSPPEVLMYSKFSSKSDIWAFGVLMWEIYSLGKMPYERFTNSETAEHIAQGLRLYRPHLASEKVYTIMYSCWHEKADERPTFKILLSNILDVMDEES
# Procedure: (§1) Immunoprecipitations, immune-complex protein kinase assays, and immunoblotting using the ECL chemiluminescence detection system (Amersham Life Sciences) were conducted as described previously (Vassilev, A., et al. J. Biol. Chem. 1998, in press; Goodman, P. A., et al. J. Biol. Chem. 1998, 273, 17742; Mahajan, S., et al. Mol. Cell. Biol. 1995, 15, 5304; Uckun, F. M., et al. Science 1996, 22, 1096).
# [2] = molecular target: T2, insulin receptor kinase (IRK) (Homo sapiens, UniProt P06213); experiment: Cell-free IRK immune complex kinase assay; format: biochemical; settings: for effect on enzymatic activity of IRK: at concentrations as high as 350 μM, IRK from HepG2 cells
# T2 construct: IRK was immunoprecipitated from the lysates with an anti-IRb antibody; endogenous in cells; host or cells: HepG2 human hepatoma cells (ATCC)
# T2 sequence (P06213 763-1382 limits assumed): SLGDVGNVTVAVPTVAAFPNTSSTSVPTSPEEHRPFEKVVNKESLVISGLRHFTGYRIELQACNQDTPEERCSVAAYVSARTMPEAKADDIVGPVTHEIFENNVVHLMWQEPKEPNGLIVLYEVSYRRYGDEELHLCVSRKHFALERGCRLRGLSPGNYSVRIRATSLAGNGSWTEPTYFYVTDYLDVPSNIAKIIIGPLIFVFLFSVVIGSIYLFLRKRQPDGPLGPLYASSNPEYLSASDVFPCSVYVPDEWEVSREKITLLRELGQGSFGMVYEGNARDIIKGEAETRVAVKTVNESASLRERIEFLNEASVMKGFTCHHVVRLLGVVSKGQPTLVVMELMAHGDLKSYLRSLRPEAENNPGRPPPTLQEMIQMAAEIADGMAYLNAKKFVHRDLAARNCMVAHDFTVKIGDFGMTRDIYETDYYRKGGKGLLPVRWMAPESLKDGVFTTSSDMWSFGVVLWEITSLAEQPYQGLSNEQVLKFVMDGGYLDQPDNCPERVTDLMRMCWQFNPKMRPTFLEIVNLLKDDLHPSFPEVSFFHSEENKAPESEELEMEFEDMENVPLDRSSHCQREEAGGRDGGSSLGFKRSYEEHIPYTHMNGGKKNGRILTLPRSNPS
# T2 sequence (P06213 28-758 partner limits assumed): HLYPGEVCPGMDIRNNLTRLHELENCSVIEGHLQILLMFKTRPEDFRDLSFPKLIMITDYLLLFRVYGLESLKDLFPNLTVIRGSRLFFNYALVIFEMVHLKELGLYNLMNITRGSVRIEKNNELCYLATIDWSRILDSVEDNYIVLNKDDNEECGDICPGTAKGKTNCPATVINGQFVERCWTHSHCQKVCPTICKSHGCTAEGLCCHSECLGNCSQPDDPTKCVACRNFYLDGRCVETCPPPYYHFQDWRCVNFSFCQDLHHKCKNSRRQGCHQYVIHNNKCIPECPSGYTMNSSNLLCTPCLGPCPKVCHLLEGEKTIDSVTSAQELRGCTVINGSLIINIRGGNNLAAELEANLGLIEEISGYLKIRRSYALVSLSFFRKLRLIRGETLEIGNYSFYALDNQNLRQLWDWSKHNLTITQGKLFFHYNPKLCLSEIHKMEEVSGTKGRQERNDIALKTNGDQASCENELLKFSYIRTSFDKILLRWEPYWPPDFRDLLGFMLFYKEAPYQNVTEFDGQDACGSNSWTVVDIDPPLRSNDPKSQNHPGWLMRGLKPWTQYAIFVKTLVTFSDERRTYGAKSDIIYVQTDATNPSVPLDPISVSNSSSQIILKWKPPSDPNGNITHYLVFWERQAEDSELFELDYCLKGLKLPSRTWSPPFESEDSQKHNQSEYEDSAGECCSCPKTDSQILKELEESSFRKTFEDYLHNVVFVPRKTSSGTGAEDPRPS
# Procedure: as §1
# Horse radish peroxidase-conjugated sheep anti-mouse, donkey anti-rabbit secondary antibodies and ECL reagents were purchased from Amersham (Oakbrook, Ill.). For insulin receptor kinase (IRK) assays, HepG2 human hepatoma cells grown to approximately 80% confluency were washed once with serum-free DMEM and starved for 3 hour at 37° in a CO2 incubator. Subsequently, cells were stimulated with insulin (Eli Lilly, cat# CP-410;10 units/ml/10×10^6 cells) for 10 minutes at room temperature. Following this IRK activation step, cells were washed once with serum free medium, lysed in NP-40 buffer and IRK was immunoprecipitated from the lysates with an anti-IRb antibody (Santa Cruz, Cat.# sc-711, polyclonal IgG). Prior to performing the immunecomplex kinase assays, the beads were equilibrated with the kinase buffer (30 mM Hepes pH 7.4, 30 mM NaCl, 8 mM MgCl2, 4 mM MnCl2).
# [3] = molecular target: T3, JAK3 (Homo sapiens, UniProt P52333); experiment: Cell-free JAK3 immune complex kinase assay; format: biochemical; settings: for effect on enzymatic activity of JAK3: at concentrations as high as 350 μM
# T3 construct: made in house; host or cells: Sf21 insect cells (baculovirus)
# T3 sequence (P52333 1-1124): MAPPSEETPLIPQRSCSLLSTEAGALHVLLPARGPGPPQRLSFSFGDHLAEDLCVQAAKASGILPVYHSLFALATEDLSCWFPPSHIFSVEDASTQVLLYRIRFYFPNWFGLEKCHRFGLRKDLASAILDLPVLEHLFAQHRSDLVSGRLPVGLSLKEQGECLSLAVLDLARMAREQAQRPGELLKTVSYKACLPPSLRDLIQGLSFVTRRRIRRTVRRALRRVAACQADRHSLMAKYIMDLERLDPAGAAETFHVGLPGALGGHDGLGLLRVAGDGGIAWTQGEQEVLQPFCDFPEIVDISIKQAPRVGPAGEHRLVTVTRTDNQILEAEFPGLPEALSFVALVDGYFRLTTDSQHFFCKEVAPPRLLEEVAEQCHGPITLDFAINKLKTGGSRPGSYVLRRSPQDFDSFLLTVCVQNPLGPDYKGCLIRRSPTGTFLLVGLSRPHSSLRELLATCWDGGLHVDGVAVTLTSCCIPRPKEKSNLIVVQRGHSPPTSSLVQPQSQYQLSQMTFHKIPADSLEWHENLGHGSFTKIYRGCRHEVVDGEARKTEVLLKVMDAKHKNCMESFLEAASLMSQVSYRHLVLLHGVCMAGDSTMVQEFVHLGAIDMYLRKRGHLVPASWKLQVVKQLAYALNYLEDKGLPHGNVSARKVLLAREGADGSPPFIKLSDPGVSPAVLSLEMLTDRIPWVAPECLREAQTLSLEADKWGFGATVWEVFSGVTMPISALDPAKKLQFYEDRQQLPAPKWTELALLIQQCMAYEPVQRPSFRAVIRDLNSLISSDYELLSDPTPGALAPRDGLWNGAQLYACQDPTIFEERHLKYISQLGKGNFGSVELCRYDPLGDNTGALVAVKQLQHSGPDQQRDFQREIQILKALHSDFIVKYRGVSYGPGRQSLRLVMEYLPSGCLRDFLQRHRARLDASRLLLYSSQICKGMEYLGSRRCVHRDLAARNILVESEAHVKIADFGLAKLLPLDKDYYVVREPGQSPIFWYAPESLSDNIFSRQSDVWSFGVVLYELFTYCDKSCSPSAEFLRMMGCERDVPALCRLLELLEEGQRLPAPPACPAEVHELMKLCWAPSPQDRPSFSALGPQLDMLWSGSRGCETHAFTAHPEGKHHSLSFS
# Procedure: as §1
# [4] = tested on: MDA-MB-231 human breast cancer cells; experiment: Transfilter cell invasion assay (Matrigel-coated Boyden chambers); format: cell-based
# Procedure: The chamber filters were coated with 50 μg/ml of Matrigel matrix, incubated overnight at room temperature under a laminar flow hood and stored at 4° C.
# On the day of the experiment, the coated inserts were rehydrated with 0.5 ml serum-free DMEM containing 0.1% bovine serum albumin for 1-2 hours. To study the effects of LFM and LFM-A12 on invasiveness of MDA-MB-231 cells, exponentially growing cells were incubated with each compound at various concentrations ranging from 12.5 RM to 100 μM in 0.1% DMSO overnight. The cells were trypsinized, washed twice with serum-free DMEM containing BSA, counted and resuspended at 1×10^5 cells/ml.
# A 0.5 ml cell suspension containing 5×10^4 cells in a serum-free DMEM containing LFM, LFM-A12, or vehicle was added to the Matrigel-coated and rehydrated filter inserts. Next, 750 μl of NIH fibroblast conditioned medium was placed as a chemoattractant in 24-well plates and the inserts were placed in wells and incubated at 37° C. for 48 hours. […] The invasive cells that migrated to the lower side of the filter were fixed, stained with Hema-3 solutions and counted under microscope. No cells were detected at the bottom of the Boyden chambers. Therefore, the number of cells on the lower side of the filters accounted for all cells that had migrated through the filter. Five (5) to ten (10) random fields per filter were counted to determine the mean (±SE) values for the invasive fraction. The invasive fractions of cells treated with LFM or LFM-A12 were compared to those of vehicle (0.1% DMSO in PBS) treated control cells and the percent inhibition of invasiveness was determined using the following formula: % Inhibition=100×(1-Invasive Fraction of Drug-Treated Cells/Invasive Fraction of Control Cells).
# [5] = MDA-MB-231, migration for 48 hours, mean of two experiments, read-out: IC50 for inhibition of invasion through Matrigel matrix
SMILES,effect on enzymatic activity of BTK [1],effect on enzymatic activity of IRK [2],effect on enzymatic activity of JAK3 [3],"IC50 [4, 5] [µM]","IC50 ([4]; MDA-MB-231, read-out: IC50 for inhibition of invasion through Matrigel matrix) [µM]","IC50 ([1]; BTK, cell-free, read-out: Inhibition IC50) [µM]","IC50 ([2]; IRK, cell-free, read-out: Inhibition IC50) [µM]","IC50 ([3]; JAK3, cell-free, read-out: Inhibition IC50) [µM]"
"CC(O)=C(C#N)C(=O)Nc1ccc(C(F)(F)F)cc1 [LFM, α-Cyano-β-hydroxy-β-methyl-N-[4-(trifluoromethyl)phenyl]-propenamide, reference compound]",did not affect the enzymatic activity,did not affect the enzymatic activity; also recorded: lack of inhibition,did not affect the enzymatic activity,97,97,–,–,–
"C/C(O)=C(\C#N)C(=O)Nc1ccc(OC(F)(F)F)cc1 [LFM-A12, α-Cyano-β-hydroxy-β-methyl-N-[4-(trifluoromethoxy)phenyl]-propenamide]",did not affect the enzymatic activity,did not affect the enzymatic activity; also recorded: lack of inhibition,did not affect the enzymatic activity,28.4,–,> 175,> 350,> 350
